According to PubChem BioAssay (NCI):
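Growth conditions: 96-well plates. Treatment: test compound, 48 hours, 5 concentrations. Analysis: linear interpolation between bracketing concentrations; unreached endpoints set to highest concentration. Here, GI50 denotes the concentration required for 50% inhibition of growth. TGI denotes the concentration required for complete inhibition of growth.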

Assays:
Test in all cases: NCI tumour cell line growth inhibition, 48 h
SNB-75 CNS = system: SNB-75 CNS
UACC-62 melanoma = system: UACC-62 melanoma
HS 578T breast = system: HS 578T breast
BT-549 breast = system: BT-549 breast
RXF 393 renal = system: RXF 393 renal
CCRF-CEM leukemia = system: CCRF-CEM leukemia
SK-MEL-28 melanoma = system: SK-MEL-28 melanoma
DU-145 prostate = system: DU-145 prostate
UO-31 renal = system: UO-31 renal
ACHN renal = system: ACHN renal
SK-MEL-2 melanoma = system: SK-MEL-2 melanoma
K-562 leukemia = system: K-562 leukemia
HCT-15 colon = system: HCT-15 colon
NCI-H460 lung = system: NCI-H460 lung
SK-MEL-5 melanoma = system: SK-MEL-5 melanoma
HCC-2998 colon = system: HCC-2998 colon
NCI-H226 lung = system: NCI-H226 lung
UACC-257 melanoma = system: UACC-257 melanoma
A549 NSCLC = system: A549 NSCLC
SK-OV-3 ovarian = system: SK-OV-3 ovarian
OVCAR-8 ovarian = system: OVCAR-8 ovarian
NCI-H522 lung = system: NCI-H522 lung
SR leukemia = system: SR leukemia
KM12 colon = system: KM12 colon
HOP-62 NSCLC = system: HOP-62 NSCLC
PC-3 prostate = system: PC-3 prostate
LOX IMVI melanoma = system: LOX IMVI melanoma
MALME-3M melanoma = system: MALME-3M melanoma
SF-295 CNS = system: SF-295 CNS

With `COc1cc2c3c(n(CCCN4CCCC4)c(=O)c2cc1OC)-c1cc2c(cc1C3=O)OCO2` the GI50 (SNB-75 CNS) was 0.286 µM, the TGI (SNB-75 CNS) was 1.96 µM and the GI50 (UACC-62 melanoma) was 1.48 µM. The TGI (UACC-62 melanoma) was 3.48 µM, the GI50 (HS 578T breast) was 2.03 µM and the TGI (HS 578T breast) was 5.08 µM. For the same compound, the GI50 (BT-549 breast) was 1.4 µM, the TGI (BT-549 breast) was 3.49 µM and the GI50 (RXF 393 renal) was 1.49 µM. For the same compound, the TGI (RXF 393 renal) was 2.95 µM, the GI50 (CCRF-CEM leukemia) was 0.0673 µM and the TGI (CCRF-CEM leukemia) was 2.31 µM. For the same compound, the GI50 (SK-MEL-28 melanoma) was 1.71 µM, the TGI (SK-MEL-28 melanoma) was 3.38 µM and the GI50 (DU-145 prostate) was 1.31 µM. It also gave a TGI (DU-145 prostate) of 2.58 µM, a GI50 (UO-31 renal) of 1.43 µM and a TGI (UO-31 renal) of 2.85 µM. It also gave a GI50 (ACHN renal) of 1.36 µM, a TGI (ACHN renal) of 2.67 µM and a GI50 (SK-MEL-2 melanoma) of 17.1 µM. For the same compound, the TGI (SK-MEL-2 melanoma) was 33.6 µM, the GI50 (K-562 leukemia) was 0.216 µM and the TGI (K-562 leukemia) was 0.895 µM. For the same compound, the GI50 (HCT-15 colon) was 1.43 µM, the TGI (HCT-15 colon) was 3.1 µM and the GI50 (NCI-H460 lung) was 0.206 µM. It also gave a TGI (NCI-H460 lung) of 2.24 µM, a GI50 (SK-MEL-5 melanoma) of 4.25 µM and a TGI (SK-MEL-5 melanoma) of 9.12 µM. For the same compound, the GI50 (HCC-2998 colon) was 1.38 µM, the TGI (HCC-2998 colon) was 2.8 µM and the GI50 (NCI-H226 lung) was 5.87 µM. It also gave a TGI (NCI-H226 lung) of 20.5 µM, a GI50 (UACC-257 melanoma) of 1.49 µM and a TGI (UACC-257 melanoma) of 3.21 µM. It also gave a GI50 (A549 NSCLC) of 1.4 µM, a TGI (A549 NSCLC) of 2.85 µM and a GI50 (SK-OV-3 ovarian) of 0.795 µM. The TGI (SK-OV-3 ovarian) was 2.46 µM, the GI50 (OVCAR-8 ovarian) was 1.36 µM and the TGI (OVCAR-8 ovarian) was 3.09 µM. It also gave a GI50 (NCI-H522 lung) of 0.789 µM, a TGI (NCI-H522 lung) of 2.52 µM and a GI50 (SR leukemia) of 0.0514 µM. For the same compound, the TGI (SR leukemia) was 0.59 µM, the GI50 (KM12 colon) was 1.61 µM and the TGI (KM12 colon) was 3.23 µM. The GI50 (HOP-62 NSCLC) was 0.65 µM, the TGI (HOP-62 NSCLC) was 2.46 µM and the GI50 (PC-3 prostate) was 1.47 µM. For the same compound, the TGI (PC-3 prostate) was 3.84 µM, the GI50 (LOX IMVI melanoma) was 0.68 µM and the TGI (LOX IMVI melanoma) was 2.29 µM. The GI50 (MALME-3M melanoma) was 1.5 µM, the TGI (MALME-3M melanoma) was 3.22 µM and the GI50 (SF-295 CNS) was 0.223 µM. It also gave a TGI (SF-295 CNS) of 2.01 µM.
